Data reported in patent publication US11839613B2, “Pyrimidine derivatives as PGE2 receptor modulators” (IDORSIA PHARMACEUTICALS LTD, priority 2017, dated 2023).

Tests used:
PTGER4 (EP4) = PTGER4 (EP4) (Homo sapiens (Human), UniProt P35408); assay: cell-based
PTGER2 (EP2) = PTGER2 (EP2) (Homo sapiens (Human), UniProt P43116); assay: hEP2 b-arrestin assay (PathHunter HEK 293 PTGER2 b-arrestin cells); format: cell-based; conditions: antagonistic activity, beta-arrestin assay; read-out: hEP2 b-arr IC50
Method: Plate is pre-incubated 15 minutes at 37° C. Then five microliters of PGE2 (final conc. 5 μM) are transferred into the assay plate. Plate is incubated 120 minutes at 37° C.
(each concentration is measured in duplicate)

Chain of PTGER4 (EP4) (P35408 whole entry): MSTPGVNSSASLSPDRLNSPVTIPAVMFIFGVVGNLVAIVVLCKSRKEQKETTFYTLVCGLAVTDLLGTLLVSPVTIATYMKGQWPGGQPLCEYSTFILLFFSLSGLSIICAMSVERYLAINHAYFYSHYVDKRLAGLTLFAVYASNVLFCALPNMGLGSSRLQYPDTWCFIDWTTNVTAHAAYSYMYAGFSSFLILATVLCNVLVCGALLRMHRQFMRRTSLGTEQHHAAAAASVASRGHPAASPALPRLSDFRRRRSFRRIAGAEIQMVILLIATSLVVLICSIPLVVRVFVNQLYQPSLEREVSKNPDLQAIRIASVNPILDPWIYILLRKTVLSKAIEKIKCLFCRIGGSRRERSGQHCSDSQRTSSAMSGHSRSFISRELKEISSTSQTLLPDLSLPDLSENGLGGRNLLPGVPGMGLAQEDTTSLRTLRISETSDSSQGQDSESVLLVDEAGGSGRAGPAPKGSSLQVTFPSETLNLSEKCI
Chain of PTGER2 (EP2) (P43116 whole entry): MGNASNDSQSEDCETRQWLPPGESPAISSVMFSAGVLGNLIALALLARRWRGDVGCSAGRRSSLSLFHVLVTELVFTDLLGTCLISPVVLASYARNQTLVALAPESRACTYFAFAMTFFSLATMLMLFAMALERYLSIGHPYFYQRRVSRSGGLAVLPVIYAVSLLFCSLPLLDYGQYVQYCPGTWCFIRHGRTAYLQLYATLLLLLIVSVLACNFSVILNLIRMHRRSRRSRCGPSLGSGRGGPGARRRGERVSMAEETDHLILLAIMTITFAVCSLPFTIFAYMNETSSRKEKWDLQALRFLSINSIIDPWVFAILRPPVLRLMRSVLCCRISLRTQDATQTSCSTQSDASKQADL

| IC50 (PTGER4 (EP4)) [nM] | IC50 (PTGER2 (EP2)) [nM] | SMILES |
| --- | --- | --- |
| 322 | 825 | CCn1cc(-c2cc(NCCc3cc(F)c4sccc4c3)ncn2)cc1C(=O)O [Example 547, 1-Ethyl-4-{6-[2-(7-fluoro-benzo[b]thiophen-5-yl)-ethylamino]-pyrimidin-4-yl}-1H-pyrrole-2-carboxylic acid] |
| 99 | 88 | COc1cc2ccccc2c(C)c1CCNc1cc(-c2ccc(CC(=O)O)c(OC(F)(F)F)c2)ncn1 [Example 500, (4-{6-[2-(3-Methoxy-1-methyl-naphthalen-2-yl)-ethylamino]-pyrimidin-4-yl}-2-trifluoromethoxy-phenyl)-acetic acid] |
| 929 | 427 | COc1cc(-c2cc(NCCc3ccc4c(c3C)OCCO4)ncn2)ccc1CC(=O)O [Example 505, (2-Methoxy-4-{6-[2-(5-methyl-2,3-dihydro-benzo[1,4]dioxin-6-yl)-ethylamino]-pyrimidin-4-yl}-phenyl)-acetic acid] |
| 63 | 371 | CCOc1cc(-c2cc(NCCc3cc(F)c4sccc4c3)ncn2)ccc1-c1cc(O)no1 [Example 550, 5-(2-Ethoxy-4-{6-[2-(7-fluoro-benzo[b]thiophen-5-yl)-ethylamino]-pyrimidin-4-yl}-phenyl)-isoxazol-3-ol] |

Second part, the molecule before the results:

| SMILES | IC50 (PTGER4 (EP4)) [nM] | IC50 (PTGER2 (EP2)) [nM] |
| --- | --- | --- |
| COc1cc(-c2cc(NCCc3c(OC)cc4c(c3C)OCCO4)ncn2)ccc1CC(=O)O [Example 434, (2-Methoxy-4-{6-[2-(7-methoxy-5-methyl-2,3-dihydro-benzo[1,4]dioxin-6-yl)-ethylamino]-pyrimidin-4-yl}-phenyl)-acetic acid] | 58 | 26 |
| CCOc1cc(-c2cc(NCCc3ccc4sccc4c3F)ncn2)cc(F)c1CC(=O)O [Example 375, (2-Ethoxy-6-fluoro-4-{6-[2-(4-fluoro-benzo[b]thiophen-5-yl)-ethylamino]-pyrimidin-4-yl}-phenyl)-acetic acid] | 46 | 229 |
| COc1cc2c(cc1CCNc1cc(-c3ccc(CC(=O)O)c(OC)c3)ncn1)OCCO2 [Example 383, (2-Methoxy-4-{6-[2-(7-methoxy-2,3-dihydro-benzo[1,4]dioxin-6-yl)-ethylamino]-pyrimidin-4-yl}-phenyl)-acetic acid] | 194 | 177 |
| CCCc1cc(-c2cc(NCCc3cc4c(cc3OC)OCCO4)ncn2)ccc1CC(=O)O [Example 387, (4-{6-[2-(7-Methoxy-2,3-dihydro-benzo[1,4]dioxin-6-yl)-ethylamino]-pyrimidin-4-yl}-2-propyl-phenyl)-acetic acid] | 49 | 61 |
| CCOc1cc(-c2cc(NCCc3cc4ccsc4c(F)c3OC)ncn2)ccc1C(=O)O [Example 404, 2-Ethoxy-4-{6-[2-(7-fluoro-6-methoxy-benzo[b]thiophen-5-yl)-ethylamino]-pyrimidin-4-yl}-benzoic acid] | 80 | 20 |
| CCOc1cc(-c2cc(NCCc3cc4ccsc4c(F)c3OC)ncn2)ccc1CC(=O)O [Example 406, (2-Ethoxy-4-{6-[2-(7-fluoro-6-methoxy-benzo[b]thiophen-5-yl)-ethylamino]-pyrimidin-4-yl}-phenyl)-acetic acid] | 62 | 45 |
| CCOc1cc(-c2cc(NCCc3cc4c(cc3OC(F)F)OCCO4)ncn2)sc1C(=O)O [Example 433, 5-{6-[2-(7-Difluoromethoxy-2,3-dihydro-benzo[1,4]dioxin-6-yl)-ethylamino}-pyrimidin-4-yl}-3-ethoxy-thiophene-2-carboxylic acid] | 19 | 30 |
| O=C(O)c1ccc(-c2cc(NCCc3cc(F)c4sccc4c3)ncn2)cc1OC1CCC1 [Example 534, 2-Cyclobutoxy-4-{6-[2-(7-fluoro-benzo[b]thiophen-5-yl)-ethylamino]-pyrimidin-4-yl}-benzoic acid] | 70 | 332 |
| COc1cc(-c2cc(NCCc3cc(F)c4sccc4c3)ncn2)ccc1CC(=O)O [Example 475, (4-{6-[2-(7-Fluoro-benzo[b]thiophen-5-yl)-ethylamino]-pyrimidin-4-yl}-2-methoxy-phenyl)-acetic acid] | 62 | 663 |
